This passage reports IC50 and Ratio IC50 results from ChEMBL document CHEMBL5223174, “Design, synthesis, and biological evaluation of novel N-Benzyl piperidine derivatives as potent HDAC/AChE inhibitors for Alzheimer's disease” (Bioorg Med Chem, 2023).

pIC50: −log10 of the molar value. Some results are limits rather than exact numbers.

One assay addresses Histone deacetylase. It is filed as cell-based, Homo sapiens. The conditions noted are these: hela.
In another assay the target is Cholinesterase (Equus caballus, UniProt P81908). The assay is described as follows: Inhibition of equine serum BChE. It is filed as cell-free. The conditions noted are these: for pIC50: read-out: IC50.
Sequence of Cholinesterase (P81908 whole entry): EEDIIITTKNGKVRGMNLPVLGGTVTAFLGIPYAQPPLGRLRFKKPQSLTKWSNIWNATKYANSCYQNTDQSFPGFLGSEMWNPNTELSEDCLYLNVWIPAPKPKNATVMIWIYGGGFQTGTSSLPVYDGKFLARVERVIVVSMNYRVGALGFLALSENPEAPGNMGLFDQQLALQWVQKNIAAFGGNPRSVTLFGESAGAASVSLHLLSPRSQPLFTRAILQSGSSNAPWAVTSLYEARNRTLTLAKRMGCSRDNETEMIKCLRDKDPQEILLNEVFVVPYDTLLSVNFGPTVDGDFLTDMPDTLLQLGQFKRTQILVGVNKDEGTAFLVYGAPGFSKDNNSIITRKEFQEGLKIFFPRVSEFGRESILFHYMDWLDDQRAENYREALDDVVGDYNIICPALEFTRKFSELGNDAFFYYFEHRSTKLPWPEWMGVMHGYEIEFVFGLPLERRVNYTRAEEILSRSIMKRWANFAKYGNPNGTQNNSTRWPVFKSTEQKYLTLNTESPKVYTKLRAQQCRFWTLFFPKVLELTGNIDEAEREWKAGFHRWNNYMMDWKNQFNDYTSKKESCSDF
Another assay deals with Acetylcholinesterase (Electrophorus electricus, UniProt O42275). The assay is described as follows: Inhibition of electric eel AChE. The conditions noted are these: for pIC50: read-out: IC50.
Sequence of Acetylcholinesterase (O42275 whole entry): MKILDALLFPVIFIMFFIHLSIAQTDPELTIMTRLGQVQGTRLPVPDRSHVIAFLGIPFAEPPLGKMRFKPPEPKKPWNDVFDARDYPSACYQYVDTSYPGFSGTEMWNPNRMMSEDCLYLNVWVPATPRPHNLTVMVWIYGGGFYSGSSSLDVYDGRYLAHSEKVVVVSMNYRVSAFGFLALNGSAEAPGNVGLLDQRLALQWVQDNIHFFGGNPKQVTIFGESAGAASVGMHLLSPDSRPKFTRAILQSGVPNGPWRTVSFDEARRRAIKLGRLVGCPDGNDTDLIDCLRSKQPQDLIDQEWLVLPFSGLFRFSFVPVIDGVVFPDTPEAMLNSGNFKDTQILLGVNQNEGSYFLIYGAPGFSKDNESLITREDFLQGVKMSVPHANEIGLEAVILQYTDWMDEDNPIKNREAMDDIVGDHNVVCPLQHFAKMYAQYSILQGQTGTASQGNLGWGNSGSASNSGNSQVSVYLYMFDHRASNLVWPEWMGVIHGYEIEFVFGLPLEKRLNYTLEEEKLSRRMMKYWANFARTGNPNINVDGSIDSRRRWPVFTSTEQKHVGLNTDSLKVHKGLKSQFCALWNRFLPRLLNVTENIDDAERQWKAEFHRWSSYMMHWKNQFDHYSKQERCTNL
The nature of assay [1]: Selectivity index, ratio of IC50 for equine serum BChE to IC50 for electric eel AChE.

Description for Histone deacetylase: Inhibition of HDAC in human HeLa cell extracts

Take `Nc1ccccc1NC(=O)c1cccc(S(=O)(=O)NCC2CCN(Cc3ccccc3)CC2)c1`: the half-inhibitory concentration (IC50) (in general, the concentration that gives 50% inhibition) against Histone deacetylase is 1.28 µM. Further, the pIC50 – broadly, the negative decadic logarithm of the IC50, by convention in mol/L – at Cholinesterase is 5.28; at Acetylcholinesterase, 5.13.

Take `Nc1ccccc1NC(=O)CCc1cccc(C(=O)NCC2CCN(Cc3ccccc3)CC2)c1`: the IC50 against Histone deacetylase came to 1.2 µM. In addition, the pIC50 at Cholinesterase is 5.02; at Acetylcholinesterase, 5.00.

`COc1cc(/C=C/C(=O)NO)ccc1C(=O)NCC1CCN(Cc2ccccc2)CC1`: the IC50 against Histone deacetylase was determined as 0.02 µM. Moreover, the pIC50 on Cholinesterase was 4.60; on Acetylcholinesterase, 4.61.

In the case of `O=C(NO)c1cccc(S(=O)(=O)NCC2CCN(Cc3ccccc3)CC2)c1`, the IC50 at Histone deacetylase was 6.8 µM; at Cholinesterase, “Not Active”. The pIC50 at Acetylcholinesterase was 4.72.

At Histone deacetylase, `Nc1ccccc1NC(=O)c1ccc(CNCC2CCN(Cc3ccccc3)CC2)cc1` yielded an IC50 greater than 10 µM. In addition, the pIC50 at Cholinesterase is 4.90; on Acetylcholinesterase it was 5.01.

`Nc1ccccc1NC(=O)c1cccc(C(=O)NCC2CCN(Cc3ccccc3)CC2)c1` came in with an IC50 against Histone deacetylase of 2.13 µM. The pIC50 on Cholinesterase was 5.10; at Acetylcholinesterase, 4.49.

As to `O=C(/C=C/c1ccc(C(=O)NCC2CCN(Cc3ccccc3)CC2)cc1)NO`, the values for the IC50 against Histone deacetylase and on Cholinesterase were 0.28 µM and “Not Active”, respectively. The Ratio IC50 in assay [1] is greater than 10. For the same compound, the pIC50 on Acetylcholinesterase is 5.09.

Turning to `Nc1ccccc1NC(=O)CCCCCCC(=O)NCC1CCN(Cc2ccccc2)CC1`, the IC50 on Histone deacetylase is greater than 10 µM; at Cholinesterase, “Not Active”; on Acetylcholinesterase, “Not Active”.

Take `O=C(CCc1cccc(C(=O)NCC2CCN(Cc3ccccc3)CC2)c1)NO`: the figures for the IC50 against Histone deacetylase, on Cholinesterase and against Acetylcholinesterase were 0.47 µM, “Not Active” and “Not Active”, respectively.

Turning to `O=C(CCCCCCC(=O)NCC1CCN(Cc2ccccc2)CC1)NO`, the IC50 against Histone deacetylase was 0.59 µM; on Acetylcholinesterase, “Not Active”. The pIC50 on Cholinesterase was 5.79.

As for `O=C(CCCCCC(=O)NCC1CCN(Cc2ccccc2)CC1)NO`, the results for the IC50 against Histone deacetylase and at Cholinesterase were greater than 10 µM and “Not Active”, respectively. For the same compound, the pIC50 at Acetylcholinesterase is 4.48.

In turn, `O=C(NO)c1ccc(C(=O)NCC2CCN(Cc3ccccc3)CC2)cc1` showed an IC50 against Histone deacetylase of 0.14 µM. The pIC50 at Cholinesterase is 5.48; on Acetylcholinesterase it was 4.40.

In turn, `O=C(CCCCCCCC(=O)NCC1CCN(Cc2ccccc2)CC1)NO` came in with an IC50 against Histone deacetylase of 0.43 µM. Besides, the values for the pIC50 on Cholinesterase and at Acetylcholinesterase were 4.86 and 4.58, respectively.

Regarding `O=C(NO)c1cccc(C(=O)NCC2CCN(Cc3ccccc3)CC2)c1`, the IC50 at Histone deacetylase is 0.8 µM; at Cholinesterase, “Not Active”; against Acetylcholinesterase, “Not Active”.

On to `O=C(CCc1ccc(C(=O)NO)cc1)NCC1CCN(Cc2ccccc2)CC1`, for which the IC50 is greater than 10 µM at Histone deacetylase, “Not Active” against Cholinesterase and “Not Active” against Acetylcholinesterase.

As to `O=C(NO)c1ccc(S(=O)(=O)NCC2CCN(Cc3ccccc3)CC2)cc1`, the IC50 is 0.45 µM on Histone deacetylase and “Not Active” against Cholinesterase. Moreover, the Ratio IC50 in assay [1] was greater than 10. Moreover, the pIC50 on Acetylcholinesterase is 5.49.

On Histone deacetylase, `COc1cc(/C=C/C(=O)Nc2ccccc2N)ccc1C(=O)NCC1CCN(Cc2ccccc2)CC1` had an IC50 of 1.25 µM. Also, the pIC50 on Cholinesterase is 5.18; at Acetylcholinesterase, 5.05.

In the case of `O=C(/C=C/c1cccc(C(=O)NCC2CCN(Cc3ccccc3)CC2)c1)NO`, the IC50 against Histone deacetylase is 0.067 µM; at Cholinesterase it was “Not Active”. Moreover, the pIC50 at Acetylcholinesterase is 4.84.

Turning to `Nc1ccccc1NC(=O)c1ccc(S(=O)(=O)NCC2CCN(Cc3ccccc3)CC2)cc1`, the IC50 was greater than 10 µM at Histone deacetylase and “Not Active” against Cholinesterase. In addition, the Ratio IC50 in assay [1] was greater than 102. The pIC50 on Acetylcholinesterase is 6.31.

For the compound `O=C(NO)c1ccc(CNCC2CCN(Cc3ccccc3)CC2)cc1`, the IC50 against Histone deacetylase was found to be 1.42 µM. The figures for the pIC50 at Cholinesterase and on Acetylcholinesterase were 4.88 and 5.22, respectively.

For the compound `COc1cc(CCC(=O)NO)ccc1C(=O)NCC1CCN(Cc2ccccc2)CC1`, the IC50 against Histone deacetylase was 0.17 µM; against Cholinesterase it was “Not Active”. The Ratio IC50 in assay [1] was greater than 10. The pIC50 at Acetylcholinesterase was 5.16.

Consider `O=C(CCc1ccc(C(=O)NCC2CCN(Cc3ccccc3)CC2)cc1)NO`, for which the IC50 was 1 µM on Histone deacetylase, “Not Active” at Cholinesterase and “Not Active” against Acetylcholinesterase.

For `Nc1ccccc1NC(=O)CCCCCC(=O)NCC1CCN(Cc2ccccc2)CC1`, the IC50 against Histone deacetylase is greater than 10 µM. Moreover, the pIC50 is 5.21 on Cholinesterase and 5.15 at Acetylcholinesterase.

The compound `Nc1ccccc1NC(=O)CCc1ccc(C(=O)NCC2CCN(Cc3ccccc3)CC2)cc1` had an IC50 against Histone deacetylase of 0.46 µM. The results for the pIC50 on Cholinesterase and at Acetylcholinesterase were 4.87 and 5.04, respectively.

Consider `Nc1ccccc1NC(=O)/C=C/c1ccc(C(=O)NCC2CCN(Cc3ccccc3)CC2)cc1`, for which the IC50 was 0.18 µM against Histone deacetylase and “Not Active” at Cholinesterase. Besides, at Acetylcholinesterase, the pIC50 is 4.86.

On to `COc1cc(CCC(=O)Nc2ccccc2N)ccc1C(=O)NCC1CCN(Cc2ccccc2)CC1`, for which the IC50 against Histone deacetylase is greater than 10 µM. In addition, the pIC50 was 4.98 on Cholinesterase and 4.50 at Acetylcholinesterase.

With `Nc1ccccc1NC(=O)CCCCCCCC(=O)NCC1CCN(Cc2ccccc2)CC1`, the IC50 against Histone deacetylase worked out at 1.14 µM. For the same compound, the figures for the pIC50 at Cholinesterase and on Acetylcholinesterase were 4.86 and 4.94, respectively.

On to `O=C(/C=C/c1ccc(C(=O)NO)cc1)NCC1CCN(Cc2ccccc2)CC1`, for which the IC50 is 2.1 µM at Histone deacetylase and “Not Active” against Cholinesterase. Further, the Ratio IC50 in assay [1] is greater than 10. Further, on Acetylcholinesterase, the pIC50 is 5.39.

For `Nc1ccccc1NC(=O)c1ccc(CCC(=O)NCC2CCN(Cc3ccccc3)CC2)cc1`, the results for the IC50 at Histone deacetylase and against Cholinesterase were greater than 10 µM and “Not Active”, respectively. For the same compound, the pIC50 on Acetylcholinesterase was 4.91.

As to `Nc1ccccc1NC(=O)/C=C/c1cccc(C(=O)NCC2CCN(Cc3ccccc3)CC2)c1`, the results for the IC50 against Histone deacetylase, at Cholinesterase and at Acetylcholinesterase were 1.62 µM, “Not Active” and “Not Active”, respectively.

Take `Nc1ccccc1NC(=O)c1ccc(/C=C/C(=O)NCC2CCN(Cc3ccccc3)CC2)cc1`: the IC50 against Histone deacetylase was greater than 10 µM. Further, in assay [1], the Ratio IC50 is greater than 10. Also, the pIC50 at Cholinesterase is 4.81; at Acetylcholinesterase, 5.67.
